Measured values published in US5856350A, “3-phenyl-1,4-dialkyl-1,2,4-triazolium salts and their use as antidepressants” (Hoechst Marion Roussel, Inc., priority 1996, dated 1999).
Read-outs that look alike come from different tables or passages of the source.

Assays:
[1] = Metabolite identification in the urine of test animals
[2] = test system: reserpine-induced ptosis; experiment: Prevention of reserpine-induced ptosis in mice; type: in vivo; conditions: Mus musculus, iv, reserpine 2 mg/kg i.v.
Method: In this assay, test groups of weighed mice are housed individually in wire mesh cages and administered test compound or vehicle. At a selected time thereafter, reserpine is administered as a 0.2 mg/ml solution in dilute acetic acid at a dose of 2 mg/kg intravenously into a tail vein. In each assay the animals are examined individually in a Plexiglas® cylinder 90 minutes later. Prevention or delay in ptosis is considered significant if the average closure of both eyes is less than 50% after observing for 30 seconds.

[3] = test system: Ro 4-1284-induced hypothermia; experiment: Antagonism to Ro 4-1284-induced hypothermia; type: in vivo; conditions: male mice, Ro 4-1284 20 mg/kg i.p.; for ED50: Mus musculus, ip
Method: Another assay utilized to evaluate antidepressant activity is testing for the antagonism to Ro 4-1284*--induced hypothermia. (*Niemegeers, Carlos, J. E. "Antagonism of Reserpine--Like Activity", edited by S. Fielding and Lal, published by Futura, pg. 73-98.) In this test, groups of male mice are weighed and housed individually in wire mesh cages. The rectal temperature of each mouse is recorded and the test compound or vehicle is then administered. […] Mice are then placed in a cold room (36° F.) for 30 minutes, and then returned to room temperature for 30 minutes. At this time (60 minutes after Ro 4-1284 administration) the rectal temperature of each mouse is again recorded. […] The final temperatures of control groups of ten Ro 4-1284-treated mice from a number of experiments are combined to form an "historic control" of 100 mice. This control is updated periodically by replacement of the oldest data.

[4] = LD50; conditions: in vivo; Table I; species and route not given
Source text: The results of testing a number of compounds of formula I for the effects summarized above, as well as their LD50, are summarized in Table I.

[5] = test system: depression; neurodegeneration; conditions: prior art compound; cited from earlier work
[6] = 1 h, 60 minute pre-treatment time, read-out: ED50 for prevention of reserpine-induced ptosis
[7] = Table I, pre-treatment time and route of test compound not given, read-out: Reserpine-Induced Ptosis ED50
[8] = Table I, two determinations listed separately where marked *, read-out: Ro 4-1284 Induced Hypothermia ED50
[9] = 1 h, 60 minute pre-treatment time, i.p., read-out: ED50 for antagonism of Ro 4-1284-induced hypothermia

SMILES	ED50 [2, 7] [mg/kg]	ED50 [3, 8] [mg/kg]	LD50 [4] [mg/kg]	ED50 [3, 9] [mg/kg]	also measured
Cn1c[n+](C)nc1-c1cccc(F)c1 [3-(3-fluorophenyl)-1,4-dimethyl-1,2,4-triazolium ion]					urinary metabolite of 5-(3-fluorophenyl)-2,4-dimethyl-3H-1,2,4-triazole-3-thione [1]: identified in the urine of test animals as a metabolite
Cn1c[n+](C)nc1-c1ccc(Cl)cc1 [Rn 4-Cl--, 3-(4-chlorophenyl)-1,4-dimethyl-1,2,4-triazolium hydrosulfate]	0.09	0.51	100 to 200		ED50 [2, 6]: 0.09 mg/kg
CC(Cc1ccccc1)NN (stereo not drawn) [catron, reference compound]				0.7	
Cn1c[n+](C)nc1-c1ccccc1F [Rn 2-F--]	0.28	0.74	100 to 200		Ro 4-1284 Induced Hypothermia ED50 ([3]; Table I, two determinations listed separately where marked *, 20 mg/kg): 0.58 mg/kg
CNCCCN1c2ccccc2CCc2ccccc21 [desipramine, reference compound]				0.1	
Cn1c[n+](C)nc1-c1c(F)cccc1F [2,6-F2 --]	5.34	0.58	100 to 200		
COc1c(F)cccc1-c1n[n+](C)cn1C [3-F-2-CH3 O--]	1.31	2	100 to 200		
Cn1c[n+](C)nc1-c1ccc(Br)cc1 [Rn 4-Br--]	0.23	0.81	200 to 400		
Cn1c[n+](C)nc1-c1cccc(F)c1 [Rn 3-F--, 3-(3-Fluorophenyl)-1,4-dimethyl-1,2,4-triazolium hydrosulfate]	0.19	0.34	200 to 400	0.34	
COc1ccccc1-c1n[n+](C)cn1C [2-CH3 O--]	> 12.5	> 3.12	50 to 100		
Cn1c[n+](C)nc1-c1ccc(I)cc1 [Rn 4-I--]	2.82	> 6.25	100 to 200		
Cn1nc(-c2cccc(F)c2)n(C)c1=S [5-(3-fluorophenyl)-2,4-dimethyl-3H-1,2,4-triazole-3-thione]					known antidepressant and neuroprotective activity [5]: antidepressant activity as well as activity in tests indicative of protection from neurodegeneration
CN(C)CCCN1c2ccccc2CCc2ccccc21 [imipramine, reference compound]				1.8	ED50 [2, 6]: 4.89 mg/kg
